Values of other authors, collected in US20070134395A1, “Method of reducing manganese in defatted soy isolate” (priority 2005, published 2007).
Where two headings read alike, the source gives them in different places.

What was measured:
[1] = calcium-deficient rat pups
[2] = neonate, from soy-based infant formula
[3] = neonate, excess Mn not metabolized

Row | Compound | greater amount of Mn in the cerebral column tissue and fluids [1] | Mn absorbed above metabolic need [2] | share of excess Mn stored in the basal ganglia region [3] | intestinal absorption of Mn (adults) | intestinal absorption of Mn (neonatal, animal models)
1 | CC(=O)[O-].CC(=O)[O-].[Mg+2] [magnesium acetate] | 900% |  |  |  | 
2 | [Mn+2] [Mn, Manganese] |  | approximately 1.1 mg | about eight | one percent to about two percent | seventy percent to about eighty percent
